# Measurements published in article PMC12420824, “Discovery of a selective alpha-kinase 1 inhibitor for the rare genetic disease ROSAH syndrome” (Nature Communications, 2025).
# Legend:
# [1] = molecular target: FMS (Homo sapiens, UniProt P07333); assay: HotSpot kinase assay; conditions: read-out: % Enzyme Activity (relative to DMSO control), 10 uM
# From the text: (§1) Additionally, a 10-dose dilution series of staurosporine and other enzyme-appropriate compounds were included as positive control inhibitors.
# [2] = molecular target: CAMK4 (Homo sapiens, UniProt Q16566); assay: HotSpot kinase assay; conditions: read-out: % Enzyme Activity (relative to DMSO control), 10 uM
# Chain of CAMK4 (Q16566 whole entry): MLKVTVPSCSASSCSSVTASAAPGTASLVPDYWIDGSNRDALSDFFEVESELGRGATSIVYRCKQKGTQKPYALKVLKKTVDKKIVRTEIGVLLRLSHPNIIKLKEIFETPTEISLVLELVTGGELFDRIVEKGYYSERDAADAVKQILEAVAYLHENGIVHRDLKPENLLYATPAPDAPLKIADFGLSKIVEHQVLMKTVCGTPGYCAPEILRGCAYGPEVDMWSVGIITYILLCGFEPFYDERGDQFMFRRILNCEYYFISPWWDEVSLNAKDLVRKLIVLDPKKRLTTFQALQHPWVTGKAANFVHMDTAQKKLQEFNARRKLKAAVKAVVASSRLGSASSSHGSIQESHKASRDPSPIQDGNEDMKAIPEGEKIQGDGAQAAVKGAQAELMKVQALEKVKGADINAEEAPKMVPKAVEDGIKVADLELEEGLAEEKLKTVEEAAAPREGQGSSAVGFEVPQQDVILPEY
# From the text: as §1
# [3] = molecular target: MRCKa/CDC42BPA (Homo sapiens, UniProt Q5VT25); assay: HotSpot kinase assay; conditions: read-out: % Enzyme Activity (relative to DMSO control), 10 uM
# From the text: as §1
# [4] = molecular target: CDK1/cyclin A (Homo sapiens, UniProt P06493); assay: HotSpot kinase assay; conditions: read-out: % Enzyme Activity (relative to DMSO control), 10 uM
# From the text: as §1
# [5] = molecular target: PAK3 (Homo sapiens, UniProt O75914); assay: HotSpot kinase assay; conditions: read-out: % Enzyme Activity (relative to DMSO control), 10 uM
# From the text: as §1
# [6] = molecular target: ASK1/MAP3K5 (Homo sapiens, UniProt Q99683); assay: HotSpot kinase assay; conditions: read-out: % Enzyme Activity (relative to DMSO control), 10 uM
# Chain of ASK1/MAP3K5 (Q99683 whole entry): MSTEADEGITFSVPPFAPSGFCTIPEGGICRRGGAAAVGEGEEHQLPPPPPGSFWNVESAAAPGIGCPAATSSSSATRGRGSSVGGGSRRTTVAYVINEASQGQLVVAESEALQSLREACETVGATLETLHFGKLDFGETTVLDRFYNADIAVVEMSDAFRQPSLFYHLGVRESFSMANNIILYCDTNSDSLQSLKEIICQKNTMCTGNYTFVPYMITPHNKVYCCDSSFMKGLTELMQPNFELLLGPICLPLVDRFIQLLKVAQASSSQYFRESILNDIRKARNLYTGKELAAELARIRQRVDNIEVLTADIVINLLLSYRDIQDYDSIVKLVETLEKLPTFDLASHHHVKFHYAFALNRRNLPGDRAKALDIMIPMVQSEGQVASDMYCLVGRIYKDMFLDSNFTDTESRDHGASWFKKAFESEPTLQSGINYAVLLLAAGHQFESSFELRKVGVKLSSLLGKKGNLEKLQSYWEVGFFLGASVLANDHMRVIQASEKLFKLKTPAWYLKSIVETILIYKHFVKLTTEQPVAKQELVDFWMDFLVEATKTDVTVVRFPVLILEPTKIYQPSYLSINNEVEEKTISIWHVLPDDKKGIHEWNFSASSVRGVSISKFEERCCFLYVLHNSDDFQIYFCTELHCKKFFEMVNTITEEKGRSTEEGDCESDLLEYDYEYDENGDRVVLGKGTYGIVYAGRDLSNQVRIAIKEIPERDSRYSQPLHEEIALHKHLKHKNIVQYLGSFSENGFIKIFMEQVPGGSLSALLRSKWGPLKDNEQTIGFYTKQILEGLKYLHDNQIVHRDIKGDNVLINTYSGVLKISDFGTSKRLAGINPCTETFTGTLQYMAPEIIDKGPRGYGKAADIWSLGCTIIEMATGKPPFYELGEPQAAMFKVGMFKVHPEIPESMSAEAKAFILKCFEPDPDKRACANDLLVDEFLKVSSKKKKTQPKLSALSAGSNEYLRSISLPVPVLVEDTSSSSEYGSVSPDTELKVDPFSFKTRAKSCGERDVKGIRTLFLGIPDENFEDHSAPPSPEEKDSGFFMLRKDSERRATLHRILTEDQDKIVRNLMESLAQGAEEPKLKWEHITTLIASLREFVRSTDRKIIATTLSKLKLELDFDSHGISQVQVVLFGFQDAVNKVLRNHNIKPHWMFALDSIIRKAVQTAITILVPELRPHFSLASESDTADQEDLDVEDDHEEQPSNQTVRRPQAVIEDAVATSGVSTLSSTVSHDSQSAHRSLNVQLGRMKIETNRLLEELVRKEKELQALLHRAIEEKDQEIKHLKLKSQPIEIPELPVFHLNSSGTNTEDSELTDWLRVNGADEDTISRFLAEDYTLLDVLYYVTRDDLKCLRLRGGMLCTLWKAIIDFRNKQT
# From the text: as §1
# [7] = 28 day GLP toxicology study; format: in vivo; conditions: dogs
# [8] = molecular target: JNK3 (Homo sapiens, UniProt P53779); assay: HotSpot kinase assay; conditions: read-out: % Enzyme Activity (relative to DMSO control), 10 uM
# From the text: as §1
# [9] = molecular target: RSK4 (Homo sapiens, UniProt Q9UK32); assay: HotSpot kinase assay; conditions: read-out: % Enzyme Activity (relative to DMSO control), 10 uM
# From the text: as §1
# [10] = molecular target: MST4 (Homo sapiens, UniProt Q9P289); assay: HotSpot kinase assay; conditions: read-out: % Enzyme Activity (relative to DMSO control), 10 uM
# From the text: as §1
# [11] = molecular target: MST1/STK4 (Homo sapiens, UniProt Q13043); assay: HotSpot kinase assay; conditions: read-out: % Enzyme Activity (relative to DMSO control), 10 uM
# [12] = molecular target: TAOK1 (Homo sapiens, UniProt Q7L7X3); assay: HotSpot kinase assay; conditions: read-out: % Enzyme Activity (relative to DMSO control), 10 uM
# [13] = molecular target: KSR2 (Homo sapiens, UniProt Q6VAB6); assay: HotSpot kinase assay; conditions: read-out: % Enzyme Activity (relative to DMSO control), 10 uM
# From the text: as §1
# [14] = molecular target: TTBK2 (Homo sapiens, UniProt Q6IQ55); assay: HotSpot kinase assay; conditions: read-out: % Enzyme Activity (relative to DMSO control), 10 uM
# From the text: as §1
# [15] = molecular target: CDK8/cyclin C (Homo sapiens, UniProt P49336); assay: HotSpot kinase assay; conditions: read-out: % Enzyme Activity (relative to DMSO control), 10 uM
# From the text: as §1
# [16] = molecular target: LRRK2 (Homo sapiens, UniProt Q5S007); assay: HotSpot kinase assay; conditions: read-out: % Enzyme Activity (relative to DMSO control), 10 uM
# From the text: as §1
# [17] = molecular target: PKG1a (Homo sapiens, UniProt Q13976); assay: HotSpot kinase assay; conditions: read-out: % Enzyme Activity (relative to DMSO control), 10 uM
# Chain of PKG1a (Q13976 whole entry): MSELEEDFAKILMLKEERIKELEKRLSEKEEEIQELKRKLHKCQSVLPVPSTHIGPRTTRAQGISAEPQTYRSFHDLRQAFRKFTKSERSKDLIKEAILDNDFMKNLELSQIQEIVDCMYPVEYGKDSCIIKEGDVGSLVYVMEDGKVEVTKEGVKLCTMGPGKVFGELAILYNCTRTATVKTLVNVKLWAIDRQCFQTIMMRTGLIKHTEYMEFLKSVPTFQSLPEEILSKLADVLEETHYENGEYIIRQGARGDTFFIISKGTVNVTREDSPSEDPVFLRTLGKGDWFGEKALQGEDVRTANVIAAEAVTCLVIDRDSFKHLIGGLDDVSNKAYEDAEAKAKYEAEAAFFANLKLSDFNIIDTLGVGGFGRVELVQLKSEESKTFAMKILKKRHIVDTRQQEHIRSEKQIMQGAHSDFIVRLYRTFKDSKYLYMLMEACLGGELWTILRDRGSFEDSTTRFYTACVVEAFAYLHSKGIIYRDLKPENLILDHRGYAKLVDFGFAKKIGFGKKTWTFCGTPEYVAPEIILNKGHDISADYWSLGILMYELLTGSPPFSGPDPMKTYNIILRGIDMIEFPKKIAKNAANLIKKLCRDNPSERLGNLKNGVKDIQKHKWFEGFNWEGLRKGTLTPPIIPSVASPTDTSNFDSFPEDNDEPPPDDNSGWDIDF
# From the text: as §1
# [18] = molecular target: ERN2/IRE2 (Homo sapiens, UniProt Q76MJ5); assay: HotSpot kinase assay; conditions: read-out: % Enzyme Activity (relative to DMSO control), 10 uM
# From the text: as §1
# [19] = molecular target: MLK3/MAP3K11 (Homo sapiens, UniProt Q16584); assay: HotSpot kinase assay; conditions: read-out: % Enzyme Activity (relative to DMSO control), 10 uM
# From the text: as §1
# [20] = molecular target: EGFR (Homo sapiens, UniProt P00533); assay: HotSpot kinase assay; conditions: read-out: % Enzyme Activity (relative to DMSO control), 10 uM
# From the text: as §1
# [21] = molecular target: c-MET (Homo sapiens, UniProt P08581); assay: HotSpot kinase assay; conditions: read-out: % Enzyme Activity (relative to DMSO control), 10 uM
# From the text: as §1
# [22] = molecular target: LIMK1 (Homo sapiens, UniProt P53667); assay: HotSpot kinase assay; conditions: read-out: % Enzyme Activity (relative to DMSO control), 10 uM
# [23] = molecular target: FES/FPS (Homo sapiens, UniProt P07332); assay: HotSpot kinase assay; conditions: read-out: % Enzyme Activity (relative to DMSO control), 10 uM
# [24] = molecular target: AMPK(A1/B1/G3) (Homo sapiens, UniProt Q13131); assay: HotSpot kinase assay; conditions: read-out: % Enzyme Activity (relative to DMSO control), 10 uM
# From the text: as §1
# [25] = molecular target: CDK7/cyclin H (Homo sapiens, UniProt P50613); assay: HotSpot kinase assay; conditions: read-out: % Enzyme Activity (relative to DMSO control), 10 uM
# Chain of CDK7/cyclin H (P50613 whole entry): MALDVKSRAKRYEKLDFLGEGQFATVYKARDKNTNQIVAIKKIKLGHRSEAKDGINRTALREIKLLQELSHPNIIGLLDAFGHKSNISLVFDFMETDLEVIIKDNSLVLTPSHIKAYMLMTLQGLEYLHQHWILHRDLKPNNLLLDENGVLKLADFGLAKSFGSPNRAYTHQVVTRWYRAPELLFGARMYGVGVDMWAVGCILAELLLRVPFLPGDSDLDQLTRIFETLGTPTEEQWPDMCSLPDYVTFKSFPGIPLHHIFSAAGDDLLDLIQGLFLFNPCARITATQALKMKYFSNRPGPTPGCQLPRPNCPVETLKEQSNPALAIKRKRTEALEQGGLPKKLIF
# Chain of CDK7/cyclin H (P51946 whole entry partner): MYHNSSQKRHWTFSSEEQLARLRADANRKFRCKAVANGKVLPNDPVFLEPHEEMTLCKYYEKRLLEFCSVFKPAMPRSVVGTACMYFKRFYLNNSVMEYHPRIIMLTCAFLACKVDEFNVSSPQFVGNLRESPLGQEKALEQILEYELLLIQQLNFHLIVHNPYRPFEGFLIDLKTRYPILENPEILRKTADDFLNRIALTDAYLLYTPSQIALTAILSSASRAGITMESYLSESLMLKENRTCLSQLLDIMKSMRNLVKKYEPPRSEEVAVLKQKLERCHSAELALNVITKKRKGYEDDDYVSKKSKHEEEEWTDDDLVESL
# Chain of CDK7/cyclin H (P51948 whole entry partner): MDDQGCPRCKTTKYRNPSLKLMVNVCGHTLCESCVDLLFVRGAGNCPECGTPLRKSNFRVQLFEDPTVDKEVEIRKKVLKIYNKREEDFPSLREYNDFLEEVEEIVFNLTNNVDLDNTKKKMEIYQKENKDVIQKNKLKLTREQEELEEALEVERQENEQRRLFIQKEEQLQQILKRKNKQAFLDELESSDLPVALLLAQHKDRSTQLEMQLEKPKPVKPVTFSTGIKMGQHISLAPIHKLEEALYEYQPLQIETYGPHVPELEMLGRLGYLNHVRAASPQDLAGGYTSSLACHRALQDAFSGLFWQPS
# From the text: as §1
# [26] = molecular target: TSSK3/STK22C (Homo sapiens, UniProt Q96PN8); assay: HotSpot kinase assay; conditions: read-out: % Enzyme Activity (relative to DMSO control), 10 uM
# From the text: as §1
# [27] = molecular target: ALK (Homo sapiens, UniProt Q9UM73); assay: HotSpot kinase assay; conditions: read-out: % Enzyme Activity (relative to DMSO control), 10 uM
# From the text: as §1
# [28] = molecular target: MSK2/RPS6KA4 (Homo sapiens, UniProt O75676); assay: HotSpot kinase assay; conditions: read-out: % Enzyme Activity (relative to DMSO control), 10 uM
# From the text: as §1
# [29] = molecular target: RSK1 (Homo sapiens, UniProt Q15418); assay: HotSpot kinase assay; conditions: read-out: % Enzyme Activity (relative to DMSO control), 10 uM
# [30] = molecular target: ZIPK/DAPK3 (Homo sapiens, UniProt O43293); assay: HotSpot kinase assay; conditions: read-out: % Enzyme Activity (relative to DMSO control), 10 uM
# From the text: as §1
# [31] = molecular target: PBK/TOPK (Homo sapiens, UniProt Q96KB5); assay: HotSpot kinase assay; conditions: read-out: % Enzyme Activity (relative to DMSO control), 10 uM
# From the text: as §1
# [32] = molecular target: MARK2/PAR-1Ba (Homo sapiens, UniProt Q7KZI7); assay: HotSpot kinase assay; conditions: read-out: % Enzyme Activity (relative to DMSO control), 10 uM
# [33] = molecular target: DRAK1/STK17A (Homo sapiens, UniProt Q9UEE5); assay: HotSpot kinase assay; conditions: read-out: % Enzyme Activity (relative to DMSO control), 10 uM
# [34] = molecular target: MYO3b (Homo sapiens, UniProt Q8WXR4); assay: HotSpot kinase assay; conditions: read-out: % Enzyme Activity (relative to DMSO control), 10 uM
# [35] = molecular target: c-MER (Homo sapiens, UniProt Q12866); assay: HotSpot kinase assay; conditions: read-out: % Enzyme Activity (relative to DMSO control), 10 uM
# From the text: as §1
# [36] = molecular target: ALK4/ACVR1B (Homo sapiens, UniProt P36896); assay: HotSpot kinase assay; conditions: read-out: % Enzyme Activity (relative to DMSO control), 10 uM
# From the text: as §1
# [37] = molecular target: DAPK2 (Homo sapiens, UniProt Q9UIK4); assay: HotSpot kinase assay; conditions: read-out: % Enzyme Activity (relative to DMSO control), 10 uM
# From the text: as §1
# [38] = molecular target: SRPK2 (Homo sapiens, UniProt P78362); assay: HotSpot kinase assay; conditions: read-out: % Enzyme Activity (relative to DMSO control), 10 uM
# From the text: as §1
# [39] = molecular target: VRK2 (Homo sapiens, UniProt Q86Y07); assay: HotSpot kinase assay; conditions: read-out: % Enzyme Activity (relative to DMSO control), 10 uM
# Chain of VRK2 (Q86Y07 whole entry): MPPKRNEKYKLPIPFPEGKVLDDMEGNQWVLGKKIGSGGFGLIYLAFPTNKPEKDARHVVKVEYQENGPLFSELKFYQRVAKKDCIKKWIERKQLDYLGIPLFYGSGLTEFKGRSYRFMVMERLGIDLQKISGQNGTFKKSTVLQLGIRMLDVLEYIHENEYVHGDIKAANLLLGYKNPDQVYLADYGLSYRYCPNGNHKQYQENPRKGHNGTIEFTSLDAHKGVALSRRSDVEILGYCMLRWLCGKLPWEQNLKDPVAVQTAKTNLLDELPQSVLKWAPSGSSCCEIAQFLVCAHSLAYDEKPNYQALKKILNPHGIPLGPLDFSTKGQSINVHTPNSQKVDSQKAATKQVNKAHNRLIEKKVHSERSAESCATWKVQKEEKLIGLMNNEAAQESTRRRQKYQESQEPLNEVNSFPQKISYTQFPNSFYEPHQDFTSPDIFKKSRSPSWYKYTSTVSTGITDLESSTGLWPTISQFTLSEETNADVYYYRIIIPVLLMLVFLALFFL
# [40] = molecular target: NEK9 (Homo sapiens, UniProt Q8TD19); assay: HotSpot kinase assay; conditions: read-out: % Enzyme Activity (relative to DMSO control), 10 uM
# Chain of FMS (P07333 20-972): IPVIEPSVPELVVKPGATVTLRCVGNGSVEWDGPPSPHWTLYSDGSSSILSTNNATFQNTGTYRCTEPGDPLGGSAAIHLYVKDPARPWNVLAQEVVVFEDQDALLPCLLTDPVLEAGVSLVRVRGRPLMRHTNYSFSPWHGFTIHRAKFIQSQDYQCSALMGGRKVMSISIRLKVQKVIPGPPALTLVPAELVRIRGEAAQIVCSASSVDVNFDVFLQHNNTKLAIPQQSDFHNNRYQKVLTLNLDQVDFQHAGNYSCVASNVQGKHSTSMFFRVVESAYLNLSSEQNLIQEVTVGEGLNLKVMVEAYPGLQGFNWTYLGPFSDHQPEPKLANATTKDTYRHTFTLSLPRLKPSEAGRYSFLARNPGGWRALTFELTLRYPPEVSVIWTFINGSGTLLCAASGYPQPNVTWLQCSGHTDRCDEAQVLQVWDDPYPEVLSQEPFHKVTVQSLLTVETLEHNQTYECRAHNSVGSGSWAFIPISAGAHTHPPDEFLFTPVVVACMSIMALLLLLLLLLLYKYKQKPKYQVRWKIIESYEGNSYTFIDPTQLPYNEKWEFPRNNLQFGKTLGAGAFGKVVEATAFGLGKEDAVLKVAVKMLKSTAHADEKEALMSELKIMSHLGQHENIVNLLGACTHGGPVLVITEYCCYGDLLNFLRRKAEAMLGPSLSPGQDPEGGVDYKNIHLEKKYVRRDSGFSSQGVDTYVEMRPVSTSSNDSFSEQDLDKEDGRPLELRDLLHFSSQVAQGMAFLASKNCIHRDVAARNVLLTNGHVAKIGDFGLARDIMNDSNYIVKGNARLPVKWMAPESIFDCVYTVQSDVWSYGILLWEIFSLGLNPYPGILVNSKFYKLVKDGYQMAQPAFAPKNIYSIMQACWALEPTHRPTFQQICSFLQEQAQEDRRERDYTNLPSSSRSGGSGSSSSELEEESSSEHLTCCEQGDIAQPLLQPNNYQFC
structure (smiles),measurement,setting,value
C#C[C@@](C)(c1ccc(Cl)cc1)c1csc(NC(=O)c2c(F)cc(N3CCNCC3)cc2F)n1 (stereo in doubt) [DF-003],remaining activity at 10 µM,[1],75.7%
same,remaining activity at 10 µM,[2],34.5%
same,remaining activity at 10 µM,[3],85.9%
same,remaining activity at 10 µM,[4],109%
same,remaining activity at 10 µM,[5],117%
same,remaining activity at 10 µM,[6],83.8%
same,general immunosuppression,[7],no general immunosuppression was observed
same,remaining activity at 10 µM,[8],92.2%
same,remaining activity at 10 µM,[9],88.3%
same,remaining activity at 10 µM,[10],69.3%
same,remaining activity at 10 µM,[11],97.1%
same,remaining activity at 10 µM,[12],16.8%
same,remaining activity at 10 µM,[13],79.5%
same,remaining activity at 10 µM,[14],98.2%
same,remaining activity at 10 µM,[15],92.9%
same,remaining activity at 10 µM,[16],99.2%
same,remaining activity at 10 µM,[17],111%
same,remaining activity at 10 µM,[18],62.1%
same,remaining activity at 10 µM,[19],77.8%
same,remaining activity at 10 µM,[20],93.7%
same,remaining activity at 10 µM,[21],90.7%
same,remaining activity at 10 µM,[22],98.3%
same,remaining activity at 10 µM,[23],71.1%
same,remaining activity at 10 µM,[24],92.7%
same,remaining activity at 10 µM,[25],102%
same,remaining activity at 10 µM,[26],53.7%
same,remaining activity at 10 µM,[27],115%
same,remaining activity at 10 µM,[28],59.7%
same,remaining activity at 10 µM,[29],69.2%
same,remaining activity at 10 µM,[30],68.5%
same,remaining activity at 10 µM,[31],90.5%
same,remaining activity at 10 µM,[32],91.2%
same,remaining activity at 10 µM,[33],12.7%
same,remaining activity at 10 µM,[34],94.4%
same,remaining activity at 10 µM,[35],89.5%
same,remaining activity at 10 µM,[36],83.8%
same,remaining activity at 10 µM,[37],73.9%
same,remaining activity at 10 µM,[38],126%
same,remaining activity at 10 µM,[39],113%
same,remaining activity at 10 µM,[40],100%
